Laboratory results published in patent publication US20230295119A1, “SUBSTITUTED PYRIDINES FOR THE TREATMENT OF INFLAMMATORY DISEASES” (GOSSAMER BIO SERVICES, INC., priority 2020, published 2023).

Legend:
TYK2 JH2 domain = TYK2 JH2 domain (Homo sapiens (Human), UniProt P29597); assay: TYK2 JH2 NanoBRET assay; assay type: binding; conditions: Table 20, read-out: TYK2 IC50
Summary of the method: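 HEK293T cells transiently expressing NanoLuc-TYK2 JH2 fusion, incubated 2 h with compound and NanoBRET K10 tracer (0.5 µM final). Target engagement read as acceptor/donor BRET ratio after Nano-Glo substrate plus extracellular NanoLuc inhibitor.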

human JAK1 = human JAK1 (Homo sapiens (Human), UniProt P23458); assay: JAK1 TR-FRET kinase assay; assay type: biochemical; conditions: TR-FRET, JAK1 2.5 nM
Sequence of human JAK1 (P23458 whole entry): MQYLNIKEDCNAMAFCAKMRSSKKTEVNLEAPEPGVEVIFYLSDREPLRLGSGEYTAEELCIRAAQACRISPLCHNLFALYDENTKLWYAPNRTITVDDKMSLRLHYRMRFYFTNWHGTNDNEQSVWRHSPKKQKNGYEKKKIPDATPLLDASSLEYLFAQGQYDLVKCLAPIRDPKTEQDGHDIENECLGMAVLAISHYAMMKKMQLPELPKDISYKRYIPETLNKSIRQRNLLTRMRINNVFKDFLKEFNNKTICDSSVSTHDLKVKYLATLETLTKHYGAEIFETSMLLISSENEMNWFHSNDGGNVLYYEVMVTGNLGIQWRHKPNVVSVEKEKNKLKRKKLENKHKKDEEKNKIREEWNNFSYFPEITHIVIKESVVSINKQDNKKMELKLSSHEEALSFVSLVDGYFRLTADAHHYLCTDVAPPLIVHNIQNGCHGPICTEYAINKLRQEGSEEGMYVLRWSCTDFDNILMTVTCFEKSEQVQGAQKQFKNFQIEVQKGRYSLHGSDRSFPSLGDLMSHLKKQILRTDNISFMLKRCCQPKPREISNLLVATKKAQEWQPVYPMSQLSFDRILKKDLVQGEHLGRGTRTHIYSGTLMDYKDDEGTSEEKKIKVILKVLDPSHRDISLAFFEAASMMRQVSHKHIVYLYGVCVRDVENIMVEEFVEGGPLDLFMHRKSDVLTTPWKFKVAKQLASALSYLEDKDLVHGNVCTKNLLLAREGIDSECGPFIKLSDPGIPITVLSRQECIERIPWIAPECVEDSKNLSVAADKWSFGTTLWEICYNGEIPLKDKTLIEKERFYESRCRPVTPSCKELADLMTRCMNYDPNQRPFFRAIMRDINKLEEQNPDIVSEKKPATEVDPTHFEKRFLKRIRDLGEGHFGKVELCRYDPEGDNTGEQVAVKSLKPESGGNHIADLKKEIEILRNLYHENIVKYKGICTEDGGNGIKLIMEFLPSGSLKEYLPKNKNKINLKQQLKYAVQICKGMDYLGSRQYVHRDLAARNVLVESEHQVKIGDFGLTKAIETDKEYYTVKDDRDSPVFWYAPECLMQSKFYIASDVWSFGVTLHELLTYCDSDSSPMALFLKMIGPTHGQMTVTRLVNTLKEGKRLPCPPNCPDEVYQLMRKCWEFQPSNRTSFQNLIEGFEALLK

human JAK2 = human JAK2 (Homo sapiens (Human), UniProt O60674); assay: JAK2 TR-FRET kinase assay; assay type: biochemical; conditions: JAK2 0.025 nM
Sequence of human JAK2 (O60674 whole entry): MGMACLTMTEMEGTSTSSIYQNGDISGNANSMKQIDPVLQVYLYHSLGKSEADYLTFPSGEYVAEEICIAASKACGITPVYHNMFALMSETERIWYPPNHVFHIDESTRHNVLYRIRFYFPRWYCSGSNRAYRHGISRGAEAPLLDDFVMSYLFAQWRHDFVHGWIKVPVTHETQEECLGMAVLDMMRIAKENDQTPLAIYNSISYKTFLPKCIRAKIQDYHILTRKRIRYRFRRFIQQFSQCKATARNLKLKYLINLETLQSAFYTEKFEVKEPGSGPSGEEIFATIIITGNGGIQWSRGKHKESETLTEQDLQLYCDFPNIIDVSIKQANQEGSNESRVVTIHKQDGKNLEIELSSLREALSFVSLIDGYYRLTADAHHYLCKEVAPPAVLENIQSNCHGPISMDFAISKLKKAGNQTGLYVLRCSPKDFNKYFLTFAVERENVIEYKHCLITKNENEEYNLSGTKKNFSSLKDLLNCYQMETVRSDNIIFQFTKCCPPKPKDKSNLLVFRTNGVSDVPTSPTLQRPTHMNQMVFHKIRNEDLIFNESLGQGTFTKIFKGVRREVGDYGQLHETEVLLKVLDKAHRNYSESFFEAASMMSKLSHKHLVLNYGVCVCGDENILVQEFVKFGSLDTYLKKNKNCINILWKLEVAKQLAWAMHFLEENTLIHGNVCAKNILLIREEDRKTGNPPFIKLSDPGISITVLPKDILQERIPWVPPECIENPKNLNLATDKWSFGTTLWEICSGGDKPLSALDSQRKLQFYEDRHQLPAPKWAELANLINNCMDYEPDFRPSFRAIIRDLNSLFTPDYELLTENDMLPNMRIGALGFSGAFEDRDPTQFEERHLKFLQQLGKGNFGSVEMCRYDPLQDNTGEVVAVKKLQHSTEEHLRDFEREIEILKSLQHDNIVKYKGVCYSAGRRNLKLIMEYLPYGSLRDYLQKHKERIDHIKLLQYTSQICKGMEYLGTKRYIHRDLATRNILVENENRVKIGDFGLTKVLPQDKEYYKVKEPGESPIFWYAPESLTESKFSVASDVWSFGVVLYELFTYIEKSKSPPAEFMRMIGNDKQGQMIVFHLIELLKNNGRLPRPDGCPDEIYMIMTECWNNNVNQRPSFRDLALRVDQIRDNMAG

human JAK3 = human JAK3 (Homo sapiens (Human), UniProt P52333); assay: JAK3 TR-FRET kinase assay; assay type: biochemical; conditions: JAK3 0.0125 nM
Sequence of human JAK3 (P52333 whole entry): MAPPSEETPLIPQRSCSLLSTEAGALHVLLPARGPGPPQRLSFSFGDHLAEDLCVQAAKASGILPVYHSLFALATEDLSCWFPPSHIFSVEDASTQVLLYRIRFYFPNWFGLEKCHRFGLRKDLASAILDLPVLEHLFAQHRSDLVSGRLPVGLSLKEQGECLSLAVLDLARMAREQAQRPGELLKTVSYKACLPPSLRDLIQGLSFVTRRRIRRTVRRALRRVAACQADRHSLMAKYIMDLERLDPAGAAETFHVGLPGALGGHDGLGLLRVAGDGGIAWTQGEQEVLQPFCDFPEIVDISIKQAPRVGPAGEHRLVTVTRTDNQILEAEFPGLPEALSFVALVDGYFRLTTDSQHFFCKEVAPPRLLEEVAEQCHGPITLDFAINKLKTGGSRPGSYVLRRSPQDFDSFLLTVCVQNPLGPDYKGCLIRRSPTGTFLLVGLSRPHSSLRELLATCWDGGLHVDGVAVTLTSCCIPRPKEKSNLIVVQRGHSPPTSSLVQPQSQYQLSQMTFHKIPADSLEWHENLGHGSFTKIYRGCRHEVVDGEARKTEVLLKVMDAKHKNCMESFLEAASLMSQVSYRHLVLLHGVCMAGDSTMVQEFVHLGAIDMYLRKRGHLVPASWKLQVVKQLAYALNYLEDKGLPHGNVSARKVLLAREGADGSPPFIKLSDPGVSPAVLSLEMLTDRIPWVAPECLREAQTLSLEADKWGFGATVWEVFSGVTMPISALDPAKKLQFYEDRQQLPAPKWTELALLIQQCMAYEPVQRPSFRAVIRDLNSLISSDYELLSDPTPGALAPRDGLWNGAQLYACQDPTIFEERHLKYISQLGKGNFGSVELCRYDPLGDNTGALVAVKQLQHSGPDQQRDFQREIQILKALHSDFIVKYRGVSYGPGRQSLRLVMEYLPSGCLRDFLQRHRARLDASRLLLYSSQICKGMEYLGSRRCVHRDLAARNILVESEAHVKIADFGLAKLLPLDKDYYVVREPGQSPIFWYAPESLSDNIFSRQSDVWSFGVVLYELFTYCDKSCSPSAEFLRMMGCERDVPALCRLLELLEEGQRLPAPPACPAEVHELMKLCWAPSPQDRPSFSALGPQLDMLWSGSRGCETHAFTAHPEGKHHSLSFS

Sequence of TYK2 JH2 domain (P29597 589-875): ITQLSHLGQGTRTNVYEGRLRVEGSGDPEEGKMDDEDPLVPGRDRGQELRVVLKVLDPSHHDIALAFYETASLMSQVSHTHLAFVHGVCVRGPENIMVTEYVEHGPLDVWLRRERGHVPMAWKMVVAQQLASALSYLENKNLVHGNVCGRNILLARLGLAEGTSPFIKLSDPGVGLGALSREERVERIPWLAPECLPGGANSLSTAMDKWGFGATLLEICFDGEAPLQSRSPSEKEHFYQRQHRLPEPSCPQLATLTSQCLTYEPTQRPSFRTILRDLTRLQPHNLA

Compound | IC50 (TYK2 JH2 domain) [nM] | IC50 (human JAK1) [nM] | IC50 (human JAK2) [nM] | IC50 (human JAK3) [nM]
CCC(=O)c1cnc(Nc2ccc(S(=O)(=O)C3CC3)cn2)cc1Nc1nccc(-c2ncn(C)n2)c1OC [Compound 13K] | 5 to 50 | ≥ 500 | 50 to 500 | 50 to 500
CCC(=O)c1cnc(Nc2ccc(CN3CCCCC3)cn2)cc1Nc1cccc(-c2ncn(C)n2)c1OC [Compound 9RR] | < 5 | ≥ 500 | ≥ 500 | ≥ 500
COc1c(-c2ncn(C)n2)ccnc1Nc1cc(Nc2ccc(-c3ncn(C)n3)cn2)ncc1C(=O)C1CC1 [Compound 15O] | 5 to 50 | ≥ 500 | ≥ 500 | ≥ 500
CCC(=O)c1cnc(Nc2ccc(-c3cnn(C)c3)cn2)cc1Nc1cccc(-c2ncn(C)n2)c1OC [Compound 15D] | < 5 | ≥ 500 | ≥ 500 | ≥ 500
CCC(=O)c1cnc(Nc2ccc(CN3CCCC3)nn2)cc1Nc1cccc(-c2ncn(C)n2)c1OC [Compound 9OOO] | 5 to 50 | ≥ 500 | ≥ 500 | ≥ 500
CCC(=O)c1cnc(Nc2ccc(CN(C)C)c(C(F)(F)F)n2)cc1Nc1cccc(-c2ncn(C)n2)c1OC [Compound 9RRRR] | 5 to 50 | ≥ 500 | ≥ 500 | ≥ 500
CCC(=O)c1cnc(Nc2ccc(CN(C)C)cn2)cc1Nc1cccc(-c2ncc(F)cn2)c1OC [Compound 9D] | 5 to 50 | ≥ 500 | ≥ 500 | ≥ 500
CCC(=O)c1cnc(Nc2cc(CN)ncn2)cc1Nc1cccc(-c2ncn(C)n2)c1OC [Compound 9LLLL] | < 5 | ≥ 500 | ≥ 500 | ≥ 500
[2H]C([2H])([2H])N(Cc1ccc(Nc2cc(Nc3cccc(-c4ncn(C)n4)c3OC)c(C(=O)CC)cn2)nc1)C([2H])([2H])[2H] [Compound 9W] | < 5 | ≥ 500 | ≥ 500 | ≥ 500
CCC(=O)c1cnc(Nc2cnc(CN3CCCC3)cn2)cc1Nc1cccc(-c2ncn(C)n2)c1OC [Compound 9AAAA] | < 5 | ≥ 500 | ≥ 500 | ≥ 500
CCC(=O)c1cnc(Nc2ccc(-n3cccn3)cn2)cc1Nc1cccc(-c2ncn(C)n2)c1OC [Compound 15H] | < 5 | ≥ 500 | ≥ 500 | ≥ 500
CCC(=O)c1cnc(Nc2cnc(OCCn3ccnc3C)cn2)cc1Nc1cccc(-c2ncn(C)n2)c1OC [Compound 18III] | 5 to 50 | ≥ 500 | ≥ 500 | ≥ 500
CCC(=O)c1cnc(Nc2cnc(CN(C)CC(F)F)cn2)cc1Nc1cccc(-c2ncn(C)n2)c1OC [Compound 9WWW] | 5 to 50 | ≥ 500 | ≥ 500 | ≥ 500

More lines, now with the values ahead:

IC50 (TYK2 JH2 domain) [nM] | IC50 (human JAK1) [nM] | IC50 (human JAK2) [nM] | IC50 (human JAK3) [nM] | Compound
50 to 500 | ≥ 500 | ≥ 500 | ≥ 500 | CCC(=O)c1cnc(NC(=O)CCc2cnn(C)c2)cc1Nc1cccc(-c2ncn(C)n2)c1OC [Compound 23F]
5 to 50 | ≥ 500 | ≥ 500 | ≥ 500 | CCC(=O)c1cnc(Nc2ccn(CC3CCOC3)n2)cc1Nc1cccc(-c2ncn(C)n2)c1OC (stereo not drawn) [Compound 21T]
5 to 50 | ≥ 500 | ≥ 500 | ≥ 500 | CCC(=O)c1cnc(Nc2ccn(CCOC)n2)cc1Nc1cccc(-c2ncn(C)n2)c1OC [Compound 21B]
50 to 500 | ≥ 500 | ≥ 500 | ≥ 500 | CCC(=O)c1cnc(NC(=O)[C@@H]2C[C@H]2CS(C)(=O)=O)cc1Nc1cccc(-c2ncn(C)n2)c1OC [Compound 22N]
5 to 50 | ≥ 500 | ≥ 500 | 50 to 500 | CCC(=O)c1cnc(Nc2ccn(CC3COC3)n2)cc1Nc1cccc(-c2ncn(C)n2)c1OC [Compound 21R]
